# From publication PMC10065276, “Enhanced therapeutic window for antimicrobial Pept-ins by investigating their structure-activity relationship” (PLOS ONE, 2023)
# Positions of bridges follow the written chain, without caps; N, C: chain ends. Residues, ends and D or L forms follow the SMILES beside them.
# System: E. coli BL21
# Settings: BL21, 17 h
# How it was run: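 EUCAST broth microdilution in Mueller-Hinton medium; end-exponential culture diluted to 0.005 McF (~1.5x10^6 CFU/mL) before 1:1 mixing with two-fold peptide dilutions (0.75 to 100 μg/mL), triplicates.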
SMILES,BL21 MIC,"BL21 MIC, SS bond","BL21 MIC, no SS bond"
CC(C)C[C@H](NC(=O)CNC(=O)[C@H](CCCNC(=N)N)NC(=O)[C@@H]1CCCN1C(=O)[C@H](CCCNC(=N)N)NC(=O)[C@H](CCCNC(=N)N)NC(=O)[C@@H](NC(=O)[C@H](CC(C)C)NC(=O)[C@H](C)NC(=O)[C@H](CC(C)C)NC(=O)CNC(=O)[C@H](C)NC(=O)CNC(=O)[C@@H](N)CCCNC(=N)N)C(C)C)C(=O)NCC(=O)N[C@@H](CC(C)C)C(=O)N[C@@H](C)C(=O)N[C@@H](CC(C)C)C(=O)N[C@H](C(=O)N[C@@H](CCCNC(=N)N)C(=O)N[C@@H](CCCNC(=N)N)C(=O)O)C(C)C [Peptide P2_L3A] (H-RGAGLALVRRPRGLGLALVRR-OH),12.50 µg/mL,–,–
CC(C)C[C@H](NC(=O)CNC(=O)[C@H](CCCNC(=N)N)NC(=O)[C@@H]1CCCN1C(=O)[C@H](CCCNC(=N)N)NC(=O)[C@H](CCCNC(=N)N)NC(=O)[C@@H](NC(=O)[C@H](CC(C)C)NC(=O)[C@H](C)NC(=O)[C@H](CC(C)C)NC(=O)CNC(=O)[C@H](CC(C)C)NC(=O)CNC(=O)[C@@H](N)CCCNC(=N)N)C(C)C)C(=O)NCC(=O)N[C@@H](CC(C)C)C(=O)N[C@@H](Cc1c[nH]c2ccccc12)C(=O)N[C@@H](CC(C)C)C(=O)N[C@H](C(=O)N[C@@H](CCCNC(=N)N)C(=O)N[C@@H](CCCNC(=N)N)C(=O)O)C(C)C [Peptide P2_A5W] (H-RGLGLALVRRPRGLGLWLVRR-OH),6.25 µg/mL,–,–
"CC(C)C[C@H](NC(=O)CNC(=O)[C@H](CCCNC(=N)N)NC(=O)[C@@H]1CCCN1C(=O)[C@H](CCCNC(=N)N)NC(=O)[C@H](C)NC(=O)[C@@H](NC(=O)[C@H](CC(C)C)NC(=O)[C@H](C)NC(=O)[C@H](CC(C)C)NC(=O)CNC(=O)[C@H](CC(C)C)NC(=O)CNC(=O)[C@@H](N)CCCNC(=N)N)C(C)C)C(=O)NCC(=O)N[C@@H](CC(C)C)C(=O)N[C@@H](C)C(=O)N[C@@H](CC(C)C)C(=O)N[C@H](C(=O)N[C@@H](CCCNC(=N)N)C(=O)N[C@@H](C)C(=O)O)C(C)C [R9A, R21A] (H-RGLGLALVARPRGLGLALVRA-OH)",>100.00 µg/mL,–,–
CC[C@H](C)[C@H](NC(=O)CNC(=O)[C@H](CC(C)C)NC(=O)[C@H](CCCNC(=N)N)NC(=O)[C@@H]1CCCN1C(=O)[C@H](CCCNC(=N)N)NC(=O)[C@H](CCCNC(=N)N)NC(=O)[C@H](CC(C)C)NC(=O)[C@H](C)NC(=O)[C@@H](NC(=O)[C@H](C)NC(=O)[C@@H](NC(=O)CNC(=O)[C@H](CC(C)C)NC(=O)[C@@H](N)CCCNC(=N)N)[C@@H](C)CC)C(C)C)C(=O)N[C@@H](C)C(=O)N[C@H](C(=O)N[C@@H](C)C(=O)N[C@@H](C)C(=O)N[C@@H](CCCNC(=N)N)C(=O)N[C@@H](CCCNC(=N)N)C(=O)O)C(C)C [Peptide P33-L19A] (H-RLGIAVALRRPRLGIAVAARR-OH),6.25 µg/mL,–,–
CC[C@H](C)[C@H](NC(=O)CNC(=O)[C@H](CC(C)C)NC(=O)[C@H](CCCNC(=N)N)NC(=O)[C@@H]1CCCN1C(=O)[C@H](CCCNC(=N)N)NC(=O)[C@H](CCCNC(=N)N)NC(=O)[C@H](CC(C)C)NC(=O)[C@H](C)NC(=O)[C@@H](NC(=O)[C@H](C)NC(=O)[C@@H](NC(=O)CNC(=O)[C@H](C)NC(=O)[C@@H](N)CCCNC(=N)N)[C@@H](C)CC)C(C)C)C(=O)N[C@@H](C)C(=O)N[C@H](C(=O)N[C@@H](C)C(=O)N[C@@H](CC(C)C)C(=O)N[C@@H](CCCNC(=N)N)C(=O)N[C@@H](CCCNC(=N)N)C(=O)O)C(C)C [Peptide P33-L2A] (H-RAGIAVALRRPRLGIAVALRR-OH),12.50 µg/mL,–,–
CC(C)C[C@H](NC(=O)CNC(=O)[C@H](CCCNC(=N)N)NC(=O)[C@@H]1CSSC[C@H](NC(=O)[C@@H](NC(=O)[C@H](CC(C)C)NC(=O)[C@H](C)NC(=O)[C@H](CC(C)C)NC(=O)CNC(=O)[C@H](CC(C)C)NC(=O)CNC(=O)[C@@H](N)CCCNC(=N)N)C(C)C)C(=O)N[C@@H](CCCNC(=N)N)C(=O)N[C@@H](CCCNC(=N)N)C(=O)N[C@@H]([C@@H](C)O)C(=O)NCC(=O)N1)C(=O)NCC(=O)N[C@@H](CC(C)C)C(=O)N[C@@H](C)C(=O)N[C@@H](CC(C)C)C(=O)N[C@H](C(=O)N[C@@H](CCCNC(=N)N)C(=O)N[C@@H](CCCNC(=N)N)C(=O)O)C(C)C [Peptide P2_H12_TG] (H-RGLGLALVCRRTGCRGLGLALVRR-OH; disulfide 9-14),–,6.50 µg/mL,6.25 µg/mL
CC[C@H](C)[C@H](NC(=O)CNC(=O)[C@H](CC(C)C)NC(=O)[C@H](C)NC(=O)[C@@H]1CCCN1C(=O)[C@H](CCCNC(=N)N)NC(=O)[C@H](C)NC(=O)[C@H](CC(C)C)NC(=O)[C@H](C)NC(=O)[C@@H](NC(=O)[C@H](C)NC(=O)[C@@H](NC(=O)CNC(=O)[C@H](CC(C)C)NC(=O)[C@@H](N)CCCNC(=N)N)[C@@H](C)CC)C(C)C)C(=O)N[C@@H](C)C(=O)N[C@H](C(=O)N[C@@H](C)C(=O)N[C@@H](CC(C)C)C(=O)N[C@@H](C)C(=O)N[C@@H](CCCNC(=N)N)C(=O)O)C(C)C [Peptide P33_3R_3] (H-RLGIAVALARPALGIAVALAR-OH),>100 µg/mL,–,–
CC(C)C[C@H](NC(=O)CNC(=O)[C@H](CCCNC(=N)N)NC(=O)[C@@H]1CCCN1C(=O)[C@H](CCCNC(=N)N)NC(=O)[C@H](C)NC(=O)[C@@H](NC(=O)[C@H](CC(C)C)NC(=O)[C@H](C)NC(=O)[C@H](CC(C)C)NC(=O)CNC(=O)[C@H](CC(C)C)NC(=O)CNC(=O)[C@@H](N)CCCNC(=N)N)C(C)C)C(=O)NCC(=O)N[C@@H](CC(C)C)C(=O)N[C@@H](C)C(=O)N[C@@H](CC(C)C)C(=O)N[C@H](C(=O)N[C@@H](CCCNC(=N)N)C(=O)N[C@@H](CCCNC(=N)N)C(=O)O)C(C)C [Peptide P2_R9A] (H-RGLGLALVARPRGLGLALVRR-OH),12.50 µg/mL,–,–
CC(C)C[C@H](NC(=O)CNC(=O)[C@H](CCCNC(=N)N)NC(=O)[C@@H]1CCCN1C(=O)[C@H](CCCNC(=N)N)NC(=O)[C@H](CCCNC(=N)N)NC(=O)[C@@H](NC(=O)[C@H](CC(C)C)NC(=O)[C@H](C)NC(=O)[C@H](CC(C)C)NC(=O)[C@H](C)NC(=O)[C@H](CC(C)C)NC(=O)CNC(=O)[C@@H](N)CCCNC(=N)N)C(C)C)C(=O)NCC(=O)N[C@@H](CC(C)C)C(=O)N[C@@H](C)C(=O)N[C@@H](CC(C)C)C(=O)N[C@H](C(=O)N[C@@H](CCCNC(=N)N)C(=O)N[C@@H](CCCNC(=N)N)C(=O)O)C(C)C [Peptide P2_G4A] (H-RGLALALVRRPRGLGLALVRR-OH),6.25 µg/mL,–,–
CC[C@H](C)[C@H](NC(=O)[C@H](CC(C)C)NC(=O)CNC(=O)[C@H](CC(C)C)NC(=O)CNC(=O)[C@H](CCCNC(=N)N)NC(=O)[C@@H]1CCCN1C(=O)[C@H](CCCNC(=N)N)NC(=O)[C@H](CCCNC(=N)N)NC(=O)[C@@H](NC(=O)[C@H](CC(C)C)NC(=O)[C@@H](NC(=O)[C@H](CC(C)C)NC(=O)CNC(=O)[C@H](CC(C)C)NC(=O)CNC(=O)[C@@H](N)CCCNC(=N)N)[C@@H](C)CC)C(C)C)C(=O)N[C@@H](CC(C)C)C(=O)N[C@H](C(=O)N[C@@H](CCCNC(=N)N)C(=O)N[C@@H](CCCNC(=N)N)C(=O)O)C(C)C [A5I (P2)] (H-RGLGLILVRRPRGLGLILVRR-OH),6.25 µg/mL,–,–
CC(C)C[C@H](NC(=O)CNC(=O)[C@H](CCCNC(=N)N)NC(=O)[C@H](Cc1ccccc1)NC(=O)[C@H](C)NC(=O)[C@H](CCCNC(=N)N)NC(=O)[C@@H](NC(=O)[C@H](CC(C)C)NC(=O)[C@H](C)NC(=O)[C@H](CC(C)C)NC(=O)CNC(=O)[C@H](CC(C)C)NC(=O)CNC(=O)[C@@H](N)CCCNC(=N)N)C(C)C)C(=O)NCC(=O)N[C@@H](CC(C)C)C(=O)N[C@@H](C)C(=O)N[C@@H](CC(C)C)C(=O)N[C@H](C(=O)N[C@@H](C)C(=O)N[C@@H](CCCNC(=N)N)C(=O)O)C(C)C [Peptide P2_4R_F] (H-RGLGLALVRAFRGLGLALVAR-OH),12.50 µg/mL,–,–
CC(C)C[C@H](NC(=O)CNC(=O)[C@H](CCCNC(=N)N)NC(=O)[C@@H]1CCCN1C(=O)[C@H](CCCNC(=N)N)NC(=O)[C@H](CCCNC(=N)N)NC(=O)[C@H](CO)NC(=O)[C@H](CC(C)C)NC(=O)[C@H](C)NC(=O)[C@H](CC(C)C)NC(=O)CNC(=O)[C@H](CC(C)C)NC(=O)CNC(=O)[C@@H](N)CCCNC(=N)N)C(=O)NCC(=O)N[C@@H](CC(C)C)C(=O)N[C@@H](C)C(=O)N[C@@H](CC(C)C)C(=O)N[C@@H](CO)C(=O)N[C@@H](CCCNC(=N)N)C(=O)N[C@@H](CCCNC(=N)N)C(=O)O [V7S (P2)] (H-RGLGLALSRRPRGLGLALSRR-OH),100.00 µg/mL,–,–
CC(C)C[C@H](NC(=O)CNC(=O)[C@H](CCCNC(=N)N)NC(=O)[C@@H](NC(=O)[C@H](C)NC(=O)[C@H](CCCNC(=N)N)NC(=O)[C@@H](NC(=O)[C@H](CC(C)C)NC(=O)[C@H](C)NC(=O)[C@H](CC(C)C)NC(=O)CNC(=O)[C@H](CC(C)C)NC(=O)CNC(=O)[C@@H](N)CCCNC(=N)N)C(C)C)C(C)C)C(=O)NCC(=O)N[C@@H](CC(C)C)C(=O)N[C@@H](C)C(=O)N[C@@H](CC(C)C)C(=O)N[C@H](C(=O)N[C@@H](C)C(=O)N[C@@H](CCCNC(=N)N)C(=O)O)C(C)C [Peptide P2_4R_V] (H-RGLGLALVRAVRGLGLALVAR-OH),12.50 µg/mL,–,–
CC[C@H](C)[C@H](NC(=O)CNC(=O)[C@H](CC(C)C)NC(=O)[C@@H](N)CCCNC(=N)N)C(=O)N[C@@H](C)C(=O)N[C@@H](C)C(=O)N[C@@H](C)C(=O)N[C@@H](CC(C)C)C(=O)N[C@@H](CCCNC(=N)N)C(=O)N[C@@H](CCCNC(=N)N)C(=O)N1CCC[C@H]1C(=O)N[C@@H](CCCNC(=N)N)C(=O)N[C@@H](CC(C)C)C(=O)NCC(=O)N[C@H](C(=O)N[C@@H](C)C(=O)N[C@H](C(=O)N[C@@H](C)C(=O)N[C@@H](CC(C)C)C(=O)N[C@@H](CCCNC(=N)N)C(=O)N[C@@H](CCCNC(=N)N)C(=O)O)C(C)C)[C@@H](C)CC [Peptide P33-V6A] (H-RLGIAAALRRPRLGIAVALRR-OH),6.25 µg/mL,–,–
CC(C)C[C@H](NC(=O)CNC(=O)[C@H](CCCNC(=N)N)NC(=O)[C@@H]1CCCN1C(=O)[C@H](CCCNC(=N)N)NC(=O)[C@H](CCCNC(=N)N)NC(=O)[C@@H](NC(=O)[C@H](CC(C)C)NC(=O)[C@H](CC(=O)O)NC(=O)[C@H](CC(C)C)NC(=O)CNC(=O)[C@H](CC(C)C)NC(=O)CNC(=O)[C@@H](N)CCCNC(=N)N)C(C)C)C(=O)NCC(=O)N[C@@H](CC(C)C)C(=O)N[C@@H](CC(=O)O)C(=O)N[C@@H](CC(C)C)C(=O)N[C@H](C(=O)N[C@@H](CCCNC(=N)N)C(=O)N[C@@H](CCCNC(=N)N)C(=O)O)C(C)C [P2_zero_tango_5] (H-RGLGLDLVRRPRGLGLDLVRR-OH),>100.00 µg/mL,–,–
